For orientation: mortality means the percentage killed. Higher therefore signals fewer survivors.

A value given as a limit tells only on which side of the number the result lay.

The text below walks through data of US20260101898A1, “SULFONAMIDE COMPOUND AND HARMFUL-ARTHROPOD CONTROLLING COMPOSITION CONTAINING SAME” (SUMITOMO CHEMICAL COMPANY, LIMITED, priority 2022, published 2026).

Common to all, as to assay type: in vivo
The test system of data set [1] is diamondback moth (Plutella xylostella). Description: Test Method 4: sprayed cabbage seedling, second-instar larvae of diamondback moth. Particulars: 120 h, spray 20 mL/seedling, after 5 days. How it is done: (§1) Each test compound is made to a formulation according to a similar method to that described in the Formulation Example 1, and thereto is added water containing 0.03 v/v % of Shindain (registered trademark) to prepare a diluted solution containing a prescribed concentration of the test compound.
(§2) Cabbage (Brassicae oleracea) seedling (on the developmental stage of the second to third true leaf) is planted in a container, and the diluted solutions are sprayed to the seedling at a ratio of 20 mL/seedling. Thereafter, the aerial part of the seedling is cut out and then is installed into a container in which a filter paper is placed at the bottom of the container. Five of second-instar larvae of diamondback moth (Plutella xylostella) are released into the container. After 5 days, the number of the surviving insects is counted, and the mortality of insects is calculated by the following equation.

For data set [2] the test system is unchanged. Description: Test Method 10: sprayed cabbage seedling, third-instar larvae of diamondback moth (formulation per Formulation Example 5). Particulars: 120 h, spray 20 mL/seedling, after 5 days. How it is done:
(§3) Each test compound is made to a formulation according to a similar method to that described in the Formulation Example 5, and thereto is added water containing 0.03 v/v % of Shindain (registered trademark) to prepare a diluted solution containing a prescribed concentration of the test compound.
Cabbage (Brassicae oleracea) seedling (on the developmental stage of the third to fourth true leaf) is planted in a container, and the diluted solutions are sprayed to the seedling at a ratio of 20 mL/seedling. Thereafter, ten of third-instar larvae of diamondback moth (Plutella xylostella) are released. After 5 days, the number of the surviving insects is counted, and the mortality of insects is calculated by the following equation.

The test system of data set [3] is common cutworm (Spodoptera litura). Nature of the data set: Test Method 3: sprayed cabbage seedling, second-instar larvae of common cutworm. Particulars: 120 h, spray 20 mL/seedling, after 5 days. Here is the method: as §1
as §2, with “common cutworm (Spodoptera litura)” for “diamondback moth (Plutella xylostella)”

Data set [4] has the same test system. Description: Test Method 9: sprayed cabbage seedling, third-instar larvae of common cutworm (formulation per Formulation Example 5). Particulars: 144 h, spray 20 mL/seedling, after 6 days. How it is done:
as §3
Cabbage (Brassicae oleracea) seedling (on the developmental stage of the third to fourth true leaf) is planted in a container, and the diluted solutions are sprayed to the seedling at a ratio of 20 mL/seedling. Thereafter, ten of third-instar larvae of common cutworm (Spodoptera litura) are released. After 6 days, the number of the surviving insects is counted, and the mortality of insects is calculated by the following equation.

The subject of data set [5] is cotton aphids (Aphis gossypii). Nature of the data set: Test Method 2: soil drench of cucumber seedling, cotton aphids released after 7 days. Particulars: drench 5 mL/seedling, examined after 6 days. Here is the method:
Each test compound is made to a formulation according to a similar method to that described in the Formulation Example 5, and thereto is added water to prepare a diluted solution containing a prescribed concentration of the test compound. Cucumber (Cucumis sativus) seedling (on the developmental stage of the second true leaf) is planted in a container, and the diluted solutions are drenched to the bottom of the seedling at a ratio of 5 mL/seedling. After 7 days, approximately 30 cotton aphids (Aphis gossypii) (all developmental stages of life) are released onto the leaf of the seedling. After 6 days, the number of the surviving insects is examined and the controlling value is calculated by the following equation. [formula] wherein the symbols in the formula represent the following descriptions. • Cb: Number of the test insects in untreated group; • Cai: Number of the surviving insects at the time of the investigation in untreated group; • Tb: Number of the test insects in treated group; • Tai: Number of the surviving insects at the time of the investigation in treated group; Here the “untreated group” represents a group where the similar treatment procedure to that of the treated group except not using the test compound is done.

Data set [6] deals with housefly (Musca domestica). Description: Test Method 8: coated glass vial, housefly female adults. The note with it: 40 mg/m^2 coated vial, 1 day. How it is done: An acetone solution which is adjusted to 800 ppm of each test compound is poured into a 20 mL glass vial, and the test compound is coated uniformly on inner face of the vial so as to 40 mg/m^2 of the test compound treated, and the vial is then dried.
5 housefly (Musca domestica) female adults are released into the treated vial, and the vial is then covered with lid. After the prescribed time, the state of the housefly is examined, and the mortality is calculated by the following equation.

Data set [7] concerns German cockroach (Blattella germanica). Description: Test Method 6: coated glass vial, German cockroach male adults. Particulars: 40 mg/m^2 coated vial, 3 days. How it is done: An acetone solution which is adjusted to 800 ppm of each test compound is poured into a 50 mL glass vial, and the test compound is coated uniformly on inner face of the vial so as to 40 mg/m^2 of the test compound treated, and the vial is then dried.
5 German cockroach (Blattella germanica) male adults are released into the treated vial, and the vial is then covered with lid. After the prescribed time, the state of the German cockroach is examined, and the mortality is calculated by the following equation.

Data set [8] relates to Western corn rootworm (Diabrotica virgifera virgifera). Description: Test Method 5: corn seedling dip, second-instar larvae of Western corn rootworm. Particulars: 120 h, corn seedling immersed 30 seconds, after 5 days. Here is the method: Each 1 mg of the test compounds is dissolved in 50 μL of a mixed solution consisting of 5% of polyoxyethylene sorbitan mono-cocoate and 95% of acetone by volume ratio. Thereto is added water containing 0.03% by volume of Shindain (registered trademark) to prepare a diluted solution containing a prescribed concentration of the test compound.
A young seedling of corn (Zea mays) is immersed into the diluted solution for 30 seconds. Thereafter, two seedlings are installed in a plastic petri dish ([…]), and 10 of second-instar larvae of Western corn rootworm (Diabrotica virgifera virgifera) are released into the dish. After 5 days, the number of the dead insects is counted, and the mortality of insects is calculated by the following equation.

In data set [1], `CN(C)S(=O)(=O)c1cc(Br)cnc1-n1nc2ccc(C(F)(F)F)cn2c1=O` [Present compound 1] showed a mortality at 500 ppm of no less than 80%. In data set [2], the mortality at 200 ppm was no less than 80%.
As for `CN(C)S(=O)(=O)c1c(-n2nc3ccc(C(F)(F)F)cn3c2=O)nc2ccc(Br)cn12` [Present compound 2], the mortality at 500 ppm in data set [1] and in data set [3] was no less than 80% throughout. Also, the mortality at 50 ppm in data set [2] is no less than 80%. In addition, the mortality at 200 ppm in data set [2] and in data set [4] was no less than 80% in each case. In addition, the controlling value in data set [5] (250 ppm) and in data set [5] (1000 ppm) was 100% in each case.
As to `CNS(=O)(=O)c1c(-c2nc3cc(C(F)(F)F)cnc3[nH]2)nc2ccc(C(F)(F)F)cn12` [Present compound 3], the mortality at 500 ppm in data set [1] and in data set [3] was no less than 80% each time. For the same molecule, the mortality in data set [6] and in data set [7] was 100% each time. This molecule also returned a mortality at 50 ppm in data set [2] of no less than 80%. Besides, the figures for the mortality at 200 ppm in data set [2], in data set [4] and in data set [8] were no less than 80%, no less than 80% and 100%, respectively.
